The values that follow come from PubChem BioAssay (NCI).

Some test systems named below: SK-OV-3 ovarian; CCRF-CEM leukemia; KM12 colon; HCT-116 colon; LOX IMVI melanoma; RPMI-8226 leukemia; HT29 colon; RXF 393 renal; M14 melanoma; OVCAR-5 ovarian.
What all share (assay): NCI anticancer screen, dose series, 48 h

Where “and” joins values, the source holds several entries; their conditions need not be identical. Identical values can stand only once.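 Protocol summary: plate cells (96-well), add compound at 5 concentrations, incubate 48 h, interpolate endpoints linearly. GI50 is the concentration that inhibits growth by half. TGI is the concentration that stops growth completely.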

With `O=[N+]([O-])c1ccc2ncccc2c1Cl`, the GI50 with SK-OV-3 ovarian was 3.13 µM; in the assay on CCRF-CEM leukemia it was 2.54 µM; with KM12 colon, 2.17 µM; in the assay with HCT-116 colon it was 1.57 µM; in the assay on LOX IMVI melanoma, 2.4 µM; in the assay on RPMI-8226 leukemia, 0.435 µM. Besides, the GI50 was 3.45 µM in the assay on HT29 colon, 2.74 µM in the assay with RXF 393 renal, 3.01 µM in the assay on M14 melanoma and 3.44 µM with OVCAR-5 ovarian. Besides, the TGI in the assay with SK-OV-3 ovarian is over 100 µM; with CCRF-CEM leukemia, 29.8 µM; in the assay on KM12 colon, 9.14 µM; in the assay with HCT-116 colon, 7.23 µM; in the assay with LOX IMVI melanoma it was 14.5 µM; with RPMI-8226 leukemia it was 6.57 µM. Besides, the TGI with HT29 colon is 9.29 µM; with RXF 393 renal, 8.81 µM; in the assay on M14 melanoma, 11.5 µM; in the assay on OVCAR-5 ovarian, over 100 µM.
Consider `C/C(Cc1ccc(Cl)cc1)=C(/c1ccc(Cl)cc1)c1ccc(OCCN(C)C)cc1`, for which the GI50 in the assay with SK-OV-3 ovarian was 5.42 µM; with CCRF-CEM leukemia, 4.17 µM; in the assay with KM12 colon, 4.16 µM; in the assay on HCT-116 colon, 3.03 µM; in the assay with LOX IMVI melanoma, 3.02 µM; in the assay on RPMI-8226 leukemia, 1.07 µM. Moreover, the GI50 with HT29 colon was 1.36 µM; in the assay on RXF 393 renal it was 3.45 µM; with M14 melanoma it was 5.19 µM; in the assay with OVCAR-5 ovarian, 4.79 µM. For the same compound, the TGI in the assay on SK-OV-3 ovarian was 10.5 µM; in the assay on CCRF-CEM leukemia, 12.9 µM; in the assay with KM12 colon it was 8.95 µM; with HCT-116 colon, 8.74 µM; with LOX IMVI melanoma, 7.18 µM; in the assay on RPMI-8226 leukemia, 3.81 µM. For the same compound, the TGI was 5.85 µM in the assay on HT29 colon, 7.54 µM in the assay with RXF 393 renal, 10.8 µM in the assay on M14 melanoma and 9.3 µM in the assay with OVCAR-5 ovarian.
Take `COc1ccc(Cn2cc3c(c2-c2cc(OC)c(OC)c(OC)c2)CCc2cnoc2-3)cc1[N+](=O)[O-]`: the GI50 in the assay on SK-OV-3 ovarian is 1.08 µM; with CCRF-CEM leukemia, 0.788 µM; with KM12 colon, 0.583 µM; in the assay on HCT-116 colon, 0.587 µM; in the assay on LOX IMVI melanoma, 0.898 µM; with RPMI-8226 leukemia it was 1.39 µM. For the same compound, the GI50 in the assay with HT29 colon was 0.411 µM; in the assay with RXF 393 renal it was 1.02 µM; in the assay with M14 melanoma, 0.662 µM; in the assay with OVCAR-5 ovarian, 5.08 µM. Moreover, the TGI with SK-OV-3 ovarian is over 30.2 µM; in the assay on CCRF-CEM leukemia, over 100 µM; in the assay on KM12 colon it was over 93.7 µM; with HCT-116 colon it was over 100 µM; with LOX IMVI melanoma, over 100 µM; with RPMI-8226 leukemia it was over 29.9 µM. The TGI in the assay with HT29 colon was 2.28 µM; in the assay with RXF 393 renal, 6.22 µM; with M14 melanoma, over 20.4 µM; in the assay on OVCAR-5 ovarian, over 100 µM.
As to `COc1ccccc1S(=O)(=O)Nc1ccc2c(c1)CN(C)C(=O)N2`, the GI50 in the assay on SK-OV-3 ovarian is 4.47 µM and 5.15 µM; in the assay on CCRF-CEM leukemia, 5.31 µM and 7.05 µM; with KM12 colon, 14.6 µM and 7.41 µM; in the assay on HCT-116 colon, 4.6 µM and 4.38 µM; in the assay with LOX IMVI melanoma it was 3.3 µM and 3.45 µM; in the assay on RPMI-8226 leukemia, 2.16 µM and 1.89 µM. Also, the GI50 in the assay with HT29 colon was 2.55 µM and 2.26 µM; in the assay with RXF 393 renal it was 4.72 µM and 5.16 µM; with M14 melanoma, 3.3 µM and 4.08 µM; in the assay with OVCAR-5 ovarian, 9.5 µM and 11.7 µM. Also, the TGI in the assay with SK-OV-3 ovarian was over 100 µM; in the assay on CCRF-CEM leukemia, over 100 µM; in the assay on KM12 colon it was over 100 µM; with HCT-116 colon, over 100 µM; in the assay on LOX IMVI melanoma, 27.8 µM and 21.3 µM; in the assay on RPMI-8226 leukemia it was over 100 µM. For the same compound, the TGI in the assay on HT29 colon was over 100 µM; in the assay on RXF 393 renal, 28.3 µM and > 60.2 µM; in the assay on M14 melanoma, over 100 µM; in the assay on OVCAR-5 ovarian it was over 100 µM.
For `CC(=O)[O][Hg][c]1ccccc1`, the GI50 in the assay with SK-OV-3 ovarian was 1.37 µM; with CCRF-CEM leukemia it was 0.147 µM; with KM12 colon, 1.6 µM; with HCT-116 colon, 0.264 µM; in the assay on LOX IMVI melanoma, 0.227 µM; with RPMI-8226 leukemia, 0.283 µM. Also, the GI50 with HT29 colon was 0.626 µM; in the assay on RXF 393 renal it was 0.234 µM; in the assay with M14 melanoma it was 0.283 µM; in the assay on OVCAR-5 ovarian it was 2.19 µM. The TGI in the assay with SK-OV-3 ovarian worked out at 2.68 µM; with CCRF-CEM leukemia it was 0.494 µM; with KM12 colon, 3.04 µM; in the assay on HCT-116 colon, 0.667 µM; with LOX IMVI melanoma it was 0.696 µM; in the assay on RPMI-8226 leukemia it was 1.3 µM. The TGI in the assay with HT29 colon turned out to be 2.46 µM; in the assay with RXF 393 renal it was 0.797 µM; with M14 melanoma, 1.06 µM; in the assay with OVCAR-5 ovarian, 3.84 µM.
On to `Cc1ccc(C)c(NC(=O)CCc2nc(=S)[nH][nH]2)c1`, for which the TGI in the assay on SK-OV-3 ovarian, in the assay on CCRF-CEM leukemia, in the assay with KM12 colon, with HCT-116 colon, with LOX IMVI melanoma and in the assay on RPMI-8226 leukemia was over 100 µM in each case. Further, the TGI in the assay on HT29 colon, in the assay with RXF 393 renal, in the assay on M14 melanoma and in the assay on OVCAR-5 ovarian was over 100 µM throughout.
In the case of `Cn1c(=S)c2[nH]c(SCCN3CCCC3)nc2n(C)c1=O`, the TGI in the assay on SK-OV-3 ovarian, in the assay on CCRF-CEM leukemia, in the assay on KM12 colon, with HCT-116 colon, in the assay with LOX IMVI melanoma and in the assay on RPMI-8226 leukemia was over 100 µM each time. For the same compound, the TGI in the assay with HT29 colon, in the assay on RXF 393 renal, in the assay with M14 melanoma and in the assay on OVCAR-5 ovarian was over 100 µM in each case.
As to `O=C1c2c(O)cc(O)cc2OC(c2ccc(O)cc2O)C1O` (configuration not stated), the GI50 in the assay on SK-OV-3 ovarian, in the assay with CCRF-CEM leukemia, in the assay on HCT-116 colon, in the assay with LOX IMVI melanoma, in the assay with RPMI-8226 leukemia and in the assay with HT29 colon was over 100 µM in each case. Moreover, the GI50 with OVCAR-5 ovarian is over 100 µM. Also, the TGI with SK-OV-3 ovarian, in the assay with CCRF-CEM leukemia, in the assay with KM12 colon, in the assay on HCT-116 colon, in the assay on LOX IMVI melanoma and with RPMI-8226 leukemia was over 100 µM each time. Further, the TGI in the assay with HT29 colon, in the assay on RXF 393 renal, with M14 melanoma and with OVCAR-5 ovarian was over 100 µM throughout.
As for `C#CCOc1cccc(Nc2ncnc3ccc(NC(=O)CCl)cc23)c1`, the GI50 is 2.59 µM with SK-OV-3 ovarian; 0.0725 µM in the assay on CCRF-CEM leukemia; 0.776 µM with KM12 colon; 0.0493 µM in the assay on HCT-116 colon; 0.0933 µM in the assay on LOX IMVI melanoma; 1.22 µM with RPMI-8226 leukemia. The GI50 in the assay with HT29 colon is 0.0981 µM; in the assay with RXF 393 renal, 4.47 µM; in the assay on M14 melanoma, 1.07 µM; in the assay with OVCAR-5 ovarian, 3.04 µM. In addition, the TGI with SK-OV-3 ovarian was over 100 µM; in the assay with CCRF-CEM leukemia, over 33.6 µM; with KM12 colon it was 10.6 µM; with HCT-116 colon, 5.25 µM; in the assay with LOX IMVI melanoma, 3.89 µM; in the assay on RPMI-8226 leukemia it was 13.6 µM. Further, the TGI with HT29 colon was determined as 6.87 µM; in the assay on RXF 393 renal, 19 µM; with M14 melanoma, 18.8 µM; in the assay with OVCAR-5 ovarian it was 19.4 µM.
